# According to patent US11963995B2, “Methods comprising desmopressin” (Ferring B.V., priority 2008, dated 2024):
# How the values were obtained:
# [1] = relative to vasopressin; cited from earlier work
# [2] = system: adult patients with nocturia; test: Number of nocturnal voids, change from baseline to Day 28 (Study CS29 Part I); format: in vivo, human; conditions: for fewer nocturnal urinary voids per night compared to baseline before treatment (median): Day 28; for Change from baseline to final visit (Day 28) of nocturnal voids, mean / Change from baseline to final visit (Day 28) of nocturnal voids, median: ITT, Part I; for minimum effective dose (MED): primary endpoint nocturnal voids
# Experimental: The term “nocturnal void” as used herein refers to a void occurring from 5 minutes after bedtime until rising in the morning with the intention of getting up.
# All treatments were administered orally once per night approximately 1 hour prior to bedtime; subjects were instructed to limit their fluid intake prior to drug self-administration. […] Randomization was to be stratified by age (<65, ≥65 years) and by the absence/presence of nocturnal polyuria, defined as a ratio of nighttime urine volume/24-hour urine volume 33%. To achieve the desired number of subjects within each stratum, enrollment of subjects in a particular stratum (age and/or presence/absence of nocturnal polyuria) could be halted. If this was necessary, all investigative sites were to be informed in writing at least 1 week in advance to stop screening in a population of subjects.
# A total of 750 subjects were planned to be enrolled, with approximately 150 subjects per treatment group. Part I of the study was conducted in 7 visits. Screening (Visit 1) occurred within 21 days of dosing (Day 1, Visit 2); subjects returned for follow-up visits on Days 4, 8, 15, 22, and 28 (end of Part I). Duration of treatment in Part I was 28 days.
# Subjects who met the following inclusion criteria were eligible for the study: provided written informed consent prior to the performance of any study-related activity, defined as any procedure that would not have been performed during the normal management of the subject; and was a male or female subject, 18 years of age and older, with an average of ≥2 nocturnal voids per night determined via a 3-day frequency-volume chart during the screening period
# All treatments were administered orally once per night approximately 1 hour prior to bedtime. Subjects were instructed to place the tablet under their tongue, without water. Subjects were provided with sufficient study drug for the duration of Part I.
# The primary endpoints for efficacy assessment were: (1) change in mean number of nocturnal voids from baseline evaluation to final visit (Day 28); and (2) proportion of subjects with >33% reduction in the mean number of nocturnal voids from baseline to final visit (Day 28). A further description and corresponding data directed to the second primary endpoint (i.e., portion of subjects with >33% reduction in the mean number of nocturnal voids) are not provided herein.
# Of the 799 randomized subjects in Part I, 757 subjects who received at least 1 dose of study drug and had follow-up data were included in the intent to treat (ITT) analysis dataset. […] All 799 randomized subjects received at least 1 dose of study drug (desmopressin or placebo) and had at least 1 safety assessment and, therefore, were included in the safety analysis dataset.
# Missing values concerning number of nocturnal voids at Day 8, Day 15, Day 22, and Day 28 in Part I were imputed using last observation carried forward (LOCF). Missing values concerning sleep disturbance and urine volume (for average 24-hour urine volume and average nocturnal urine volume) were not imputed.
# [3] = 10 ug, all males with monitoring
# [4] = 10 ug, females over 50 years of age
# [5] = 10 ug, females over 65 years of age
# [6] = 25 ug, all males with monitoring
# [7] = 25 ug, females over 50 years of age
# [8] = 25 ug, females over 65 years of age
# [9] = 50 ug, all males with monitoring
# [10] = 50 ug, females over 50 years of age
# [11] = 50 ug, females over 65 years of age
# [12] = 100 ug, all males with monitoring
# [13] = 100 ug, females over 50 years of age
# [14] = 100 ug, females over 65 years of age
structure (smiles),measurement,setting,value
NC(=O)CC[C@@H]1NC(=O)[C@H](Cc2ccccc2)NC(=O)[C@H](Cc2ccc(O)cc2)NC(=O)CCSSC[C@@H](C(=O)N2CCC[C@H]2C(=O)N[C@H](CCCN=C(N)N)C(=O)NCC(N)=O)NC(=O)[C@H](CC(N)=O)NC1=O [desmopressin],"antidiuretic-to-vasopressor ratio, greater than vasopressin",[1],3000 fold
same,fewer nocturnal urinary voids per night compared to baseline before treatment (median),"[2]; 10 μg, all females",at least 1.0 voids per night
same,"Change from baseline to final visit (Day 28) of nocturnal voids, mean","[2]; 10 ug, all females",−1.15
same,"Change from baseline to final visit (Day 28) of nocturnal voids, median","[2]; 10 ug, all females",−1.00
same,"Change from baseline to final visit (Day 28) of nocturnal voids, mean","[2]; 10 ug, all groups",−0.83
same,"Change from baseline to final visit (Day 28) of nocturnal voids, median","[2]; 10 ug, all groups",−0.67
same,"Change from baseline to final visit (Day 28) of nocturnal voids, mean",[2]; [3],−0.66
same,"Change from baseline to final visit (Day 28) of nocturnal voids, median",[2]; [3],−0.67
same,"Change from baseline to final visit (Day 28) of nocturnal voids, mean","[2]; 10 ug, all males",−0.54
same,"Change from baseline to final visit (Day 28) of nocturnal voids, median","[2]; 10 ug, all males",−0.67
same,fewer nocturnal urinary voids per night compared to baseline before treatment (median),"[2]; 10 μg, females over 50 years of age",at least 1.0 voids per night
same,"Change from baseline to final visit (Day 28) of nocturnal voids, mean",[2]; [4],−1.08
same,"Change from baseline to final visit (Day 28) of nocturnal voids, median",[2]; [4],−1.00
same,"Change from baseline to final visit (Day 28) of nocturnal voids, mean",[2]; [5],−0.93
same,"Change from baseline to final visit (Day 28) of nocturnal voids, median",[2]; [5],−0.67
same,fewer nocturnal urinary voids per night compared to baseline before treatment (median),"[2]; 25 μg, all females",at least 1.0 voids per night
same,"Change from baseline to final visit (Day 28) of nocturnal voids, mean","[2]; 25 ug, all females",−1.22
same,"Change from baseline to final visit (Day 28) of nocturnal voids, median","[2]; 25 ug, all females",−1.33
same,"Change from baseline to final visit (Day 28) of nocturnal voids, mean","[2]; 25 ug, all groups",−1.00
same,"Change from baseline to final visit (Day 28) of nocturnal voids, median","[2]; 25 ug, all groups",−1.00
same,"Change from baseline to final visit (Day 28) of nocturnal voids, mean",[2]; [6],−0.91
same,"Change from baseline to final visit (Day 28) of nocturnal voids, median",[2]; [6],−0.67
same,"Change from baseline to final visit (Day 28) of nocturnal voids, mean","[2]; 25 ug, all males",−0.83
same,"Change from baseline to final visit (Day 28) of nocturnal voids, median","[2]; 25 ug, all males",−0.67
same,fewer nocturnal urinary voids per night compared to baseline before treatment (median),"[2]; 25 μg, females over 50 years of age",at least 1.0 voids per night
same,"Change from baseline to final visit (Day 28) of nocturnal voids, mean",[2]; [7],−1.35
same,"Change from baseline to final visit (Day 28) of nocturnal voids, median",[2]; [7],−1.33
same,fewer nocturnal urinary voids per night compared to baseline before treatment (median),"[2]; 25 μg, females over 65 years of age",at least 1.67 voids per night
same,"Change from baseline to final visit (Day 28) of nocturnal voids, mean",[2]; [8],−1.27
same,"Change from baseline to final visit (Day 28) of nocturnal voids, median",[2]; [8],−1.67
same,proportion of subjects with >75% reductions in the mean number of nocturnal voids,"[2]; 50 μg, Day 28 (placebo 5%)",10%
same,proportion of subjects with >50% reductions in the mean number of nocturnal voids,"[2]; 50 μg, Day 28 (placebo 20%)",28%
same,proportion of subjects with >33% reductions in the mean number of nocturnal voids,"[2]; 50 μg, Day 28 (placebo 47%)",53%
same,"Change from baseline to final visit (Day 28) of nocturnal voids, mean","[2]; 50 ug, all females",−1.23
same,"Change from baseline to final visit (Day 28) of nocturnal voids, median","[2]; 50 ug, all females",−1.00
same,"Change from baseline to final visit (Day 28) of nocturnal voids, mean","[2]; 50 ug, all groups",−1.18
same,"Change from baseline to final visit (Day 28) of nocturnal voids, median","[2]; 50 ug, all groups",−1.00
same,"Change from baseline to final visit (Day 28) of nocturnal voids, mean",[2]; [9],−1.09
same,"Change from baseline to final visit (Day 28) of nocturnal voids, median",[2]; [9],−1.00
same,"Change from baseline to final visit (Day 28) of nocturnal voids, mean","[2]; 50 ug, all males",−1.13
same,"Change from baseline to final visit (Day 28) of nocturnal voids, median","[2]; 50 ug, all males",−1.00
same,"Change from baseline to final visit (Day 28) of nocturnal voids, mean",[2]; [10],−1.15
same,"Change from baseline to final visit (Day 28) of nocturnal voids, median",[2]; [10],−1.00
same,"Change from baseline to final visit (Day 28) of nocturnal voids, mean",[2]; [11],−0.97
same,"Change from baseline to final visit (Day 28) of nocturnal voids, median",[2]; [11],−1.00
same,"Change from baseline to final visit (Day 28) of nocturnal voids, mean","[2]; 100 ug, all females",−1.51
same,"Change from baseline to final visit (Day 28) of nocturnal voids, median","[2]; 100 ug, all females",−1.33
same,"Change from baseline to final visit (Day 28) of nocturnal voids, mean","[2]; 100 ug, all groups",−1.43
same,"Change from baseline to final visit (Day 28) of nocturnal voids, median","[2]; 100 ug, all groups",−1.33
same,"Change from baseline to final visit (Day 28) of nocturnal voids, mean",[2]; [12],−1.41
same,"Change from baseline to final visit (Day 28) of nocturnal voids, median",[2]; [12],−1.67
same,"Change from baseline to final visit (Day 28) of nocturnal voids, mean","[2]; 100 ug, all males",−1.38
same,"Change from baseline to final visit (Day 28) of nocturnal voids, median","[2]; 100 ug, all males",−1.33
same,"Change from baseline to final visit (Day 28) of nocturnal voids, mean",[2]; [13],−1.44
same,"Change from baseline to final visit (Day 28) of nocturnal voids, median",[2]; [13],−1.33
same,"Change from baseline to final visit (Day 28) of nocturnal voids, mean",[2]; [14],−1.00
same,"Change from baseline to final visit (Day 28) of nocturnal voids, median",[2]; [14],−1.00
same,minimum effective dose (MED),[2]; females,25 µg
same,minimum effective dose (MED),[2]; males,100 µg
